Experimental findings from publication PMC10107299, “Neutralizing the Impact of the Virulence Factor LecA from Pseudomonas aeruginosa on Human Cells with New Glycomimetic Inhibitors” (Angewandte Chemie (International Ed. in English), 2023) are described below.

Data set [1] can be described thus: Kinetic solubility in TBS/Ca2+ buffer (HPLC-MS). The data set is classed as physicochemical. The settings on record: aqueous buffer, kinetic from dmso stock; TBS/Ca2+ buffer pH 7.4, 1 % DMSO, N≥3; read-out: Solubility S (kinetic). The protocol: Next, we quantified the solubility of at least one representative of each new class and of one parent bisacylhydrazone in aqueous media (Table 1). […]
TBS/Ca2+ buffer (20 mM Tris, 137 mM NaCl, 2.6 mM KCl at pH 7.4 supplemented with 1 mM […]
CaCl2) in presence of 25% DMSO. […]
Kinetic solubility was determined on the analytical HPLC-MS using Compass QuantAnalysis quantification software (Bruker). Samples were prepared from DMSO stock solutions by dilution with TBS/Ca2+ buffer to 100 µM with 1% DMSO present. Samples were incubated on a shaker for 1 h at r.t., centrifuged (21380 g, 20 min), supernatants were diluted with DMSO (1:3), analyzed by HPLC-MS and fitted to the individual calibration curves.
Every experiment was repeated independently at least three times. […]

A short description of data set [2]: In vitro metabolic stability, mouse liver microsomes. The format is in vitro ADME. The settings on record: N=3, read-out: CLint MLM. How it is done:
(§1) Acetonitrile and caffeine were dispensed using a Mantis Formulatrix. Then samples were centrifuged for 20 min at 2.270 x g at 4 °C and the supernatants were transferred to 96-well Greiner V-bottom plates. Peak areas of each compound and of the internal standard were analyzed using the MultiQuant 3.0 software (AB Sciex). Peak areas of the respective compound were normalized to the internal standard peak area and to the respective peak areas at time point 0 min: (C/D)/(A/B) with A: peak area of the compound at time point 0 min, B: peak area of the internal standard at time point 0 min, C: peak area of the compound at the respective time point, D: peak area of the internal standard at the respective time point.
In vitro metabolic stability assay
Liver microsomes (mouse and human, Thermo Fisher) were thawed slowly on ice. 20 mg/mL of microsomes, 2 µL of a 100 µM solution of every compound and 183 µL of 100 mM phosphate buffer were incubated 5 min at 37 °C in a water bath. Reactions were initiated using 10 µL of 20 mM NADPH (CarlRoth). Samples were incubated in three replicates at 37 °C under gentle agitation at 150 rpm. At 0, 5, 15, 30, and 60 min, reactions were terminated by the addition of 180 µL acetonitrile using a Mantis Formulatrix dispenser. Samples were vortexed for 5 min using an Eppendorf MixMate vortex mixer and centrifuged at 2.270 x g for 20 min at 4 °C. The supernatants were transferred to 96-well Greiner V-bottom plates, sealed and analyzed according to the section HPLC-MS analysis. Peak areas of the respective time point of the compounds were normalized to the peak area at time point 0 min. Then half-life was calculated using linear regression (Microsoft Excel). Clint [µL/min/mg protein] was calculated using the following formula: […]

Data set [3] can be described thus: Plasma protein binding (rapid equilibrium device), murine plasma. The format is in vitro ADME, mouse. The following applies: CD-1, mouse, plasma, read-out: PPB Mouse (converted). The protocol: as §1, with “mixer (Eppendorf). Acetonitrile” for “Acetonitrile”, “point. […]” for “point.”
Assessment of plasma protein binding
Plasma protein binding was assessed using the rapid equilibrium device (RED) system from ThermoFisher. Compounds were dissolved in DMSO. […]
high plasma protein binding. Compounds were diluted in murine plasma (from CD-1 mice, pooled) or in human plasma (human donors, both genders, pooled) to a final concentration of 1 µM. Dialysis buffer and plasma samples were added to the respective chambers according the manufacturer’s protocol. The RED plate was sealed with a tape and incubated at 37 °C for 2 hours at 800 rpm on an Eppendorf MixMate vortex-mixer. Then samples were withdrawn from the respective chambers. To 25 µL of each dialysis sample, 25 µL of plasma and to 25 µL of plasma sample, 25 µL of dialysis buffer was added. Then 150 µL ice-cold extraction solvent (ACN/H2O (90:10) containing 12.5 ng/mL caffeine as internal standard) was added. Samples were incubated for 30 min on ice. Then samples were centrifuged at 4 °C at 2270 x g for 10 min.
Supernatants were transferred to Greiner V-bottom 96-well plates and sealed with a tape. The […]
percentage of bound compound was calculated as follows:
(1) % free = (concentration buffer chamber / concentration plasma chamber) *100 […]
Samples were analyzed using an Agilent 1290 Infinity II HPLC system coupled to an AB Sciex QTrap 6500plus mass spectrometer. LC conditions were as follows: column: Agilent […]
Zorbax Eclipse Plus C18, 50x2.1 mm, 1.8 µm; temperature: 30 °C; injection volume: 5 µL per […]
sample; flow rate: 700 µL/min. Samples were run under acidic and buffered conditions.
Solvents for acidic conditions: A1: water + 0.1% formic acid; solvent B1: 95% acetonitrile/5% […]
H2O + 0.1% formic acid; solvents for buffered conditions: A2: 95% water + 5% acetonitrile + […]
5 mM ammonium acetate + 40 µL/L acetic acid; B2: 95% acetonitrile + 5% water + 5 mM […]
ammonium acetate + 40 µL/L acetic acid. The same gradient was applied for acidic and […]
buffered conditions: 99% A at 0 min, 99% A until 1 min, 99% - 0% A from 1 min to 4.0 min, […]
0% A until 5.0 min. Mass transitions for controls and compounds are depicted in the following […]

The structures appear in SMILES notation. Converted amounts (≈) assume the structure as drawn.

With `O=C(/C=C/c1ccc(O[C@@H]2O[C@H](CO)[C@H](O)[C@H](O)[C@H]2O)cc1)Nc1ccc(OCCOc2ccc(NC(=O)/C=C/c3ccc(O[C@@H]4O[C@H](CO)[C@H](O)[C@H](O)[C@H]4O)cc3)cn2)nc1` [Compound H1], the solubility (kinetic) at 1 h in data set [1] was determined as 8.1 ± 2.2 µM (≈ 6.99 µg/mL). Further, the microsomal CLint at 1 µM in data set [2] turned out to be 17.5 µL/min/mg.

On to `O=C(CCc1ccc(O[C@@H]2O[C@H](CO)[C@H](O)[C@H](O)[C@H]2O)cc1)Nc1ccc(OCCOc2ccc(NC(=O)CCc3ccc(O[C@@H]4O[C@H](CO)[C@H](O)[C@H](O)[C@H]4O)cc3)cc2)cc1` [Compound D2], for which the kinetic solubility at 1 h in data set [1] came to 3.1 ± 2.1 µM (≈ 2.68 µg/mL). For the same compound, the microsomal CLint at 1 µM in data set [2] amounted to 29.6 µL/min/mg.

As for `O=C(CCc1ccc(O[C@@H]2O[C@H](CO)[C@H](O)[C@H](O)[C@H]2O)cc1)Nc1ccc(OCCOc2ccc(NC(=O)CCc3ccc(O[C@@H]4O[C@H](CO)[C@H](O)[C@H](O)[C@H]4O)cc3)cn2)nc1` [Compound H2], the fraction unbound at 2 h, 1 µM in data set [3] is 0.03. Besides, in data set [1], the solubility (kinetic) at 1 h stood at 14.8 ± 1.5 µM (≈ 12.8 µg/mL). The microsomal CLint at 1 µM in data set [2] is 6.8 µL/min/mg.

In the case of `O=C(CCc1ccc(O[C@@H]2O[C@H](CO)[C@H](O)[C@H](O)[C@H]2O)cc1)Nc1ccc(CCc2ccc(NC(=O)CCc3ccc(O[C@@H]4O[C@H](CO)[C@H](O)[C@H](O)[C@H]4O)cc3)cc2S(=O)(=O)O)c(S(=O)(=O)O)c1` [Compound L2], the fraction unbound at 2 h, 1 µM in data set [3] is 0.86. Besides, the microsomal CLint at 1 µM in data set [2] came to 29.5 µL/min/mg.

With `O=C(/C=C/c1ccc(O[C@@H]2O[C@H](CO)[C@H](O)[C@H](O)[C@H]2O)cc1)Nc1ccc(OCCOc2ccc(NC(=O)/C=C/c3ccc(O[C@@H]4O[C@H](CO)[C@H](O)[C@H](O)[C@H]4O)cc3)cc2)cc1` [Compound D1], the fraction unbound at 2 h, 1 µM in data set [3] was 0.006. The kinetic solubility at 1 h in data set [1] worked out at 3.3 ± 1.3 µM (≈ 2.84 µg/mL). Further, the microsomal CLint at 1 µM in data set [2] amounted to 22.4 µL/min/mg.

Usually kinetic solubility stands for the concentration staying in solution when a stock, usually in DMSO, is diluted into the medium.
